Earlier results, collected in US20140161876A1, “LIPOSOME-CONTAINING PREPARATION UTILIZING DISSOLUTION AID, AND METHOD FOR PRODUCING SAME” (KONICA MINOLTA, INC., priority 2011, published 2014).
Converted amounts (≈) assume the structure as drawn.

Settings: drug encapsulated, Tables 3 and 4

Row | Solubility in water [mg/mL] | SMILES
1 | 0.5 (≈ 0.85 mM) | COc1cc([C@@H]2c3cc4c(cc3[C@@H](O[C@@H]3O[C@@H]5CO[C@@H](C)O[C@H]5[C@H](O)[C@H]3O)[C@H]3COC(=O)[C@H]23)OCO4)cc(OC)c1O [etoposide]
2 | 20 (≈ 42.2 mM) | Nc1nc(=O)c2c([nH]1)NC[C@H](CNc1ccc(C(=O)N[C@@H](CCC(=O)O)C(=O)O)cc1)N2C=O [levofolinate]
